Reference: PubChem BioAssay AID1996
Values after ≈ are worked out from the molar mass of the structure shown.

conditions: buffer; pH 7.4; 200.0 µM

Row | Structure (SMILES) | solubility kinetic
1 | NS(=O)(=O)c1ccc(Nc2nc(-c3cccnc3)cs2)cc1 | < 0.2 µg/mL
2 | O=C(/C=C/c1cccc2ccccc12)N1CCOCC1 | > 40.1 µg/mL
3 | Cc1cc(C)c(C#N)c(SCc2ccc([N+](=O)[O-])cc2)n1 | < 0.2 µg/mL
4 | O=C(NCCCNC(=O)c1cnccn1)c1ccc(Br)cc1 | 52.2 µg/mL (≈ 144 µM)
5 | CNC(=O)O/N=C(\N)Cc1csc2ccc(Cl)cc12 | 44.1 µg/mL (≈ 148 µM)
6 | COc1c(Cl)cccc1-c1cn2ccccc2n1 | 2 µg/mL (≈ 7.73 µM)
7 | CC1CC(C)CN(c2cc(N(C)CCO)c([N+](=O)[O-])c3nonc23)C1 (stereo unspecified) | 52.1 µg/mL (≈ 149 µM)
8 | CCN(CC(=O)Nc1c(F)cccc1F)C(=O)c1cnccn1 | > 48 µg/mL
9 | O=C(N/C(=C\c1ccco1)C(=O)N1CCCC1CO)c1ccccc1 (stereo unspecified) | > 51.1 µg/mL
10 | N#Cc1ccc(OCC(=O)NCC2COc3ccccc3O2)cc1 (stereo unspecified) | > 48.7 µg/mL
11 | COCCNC(=S)Nc1ccccc1[N+](=O)[O-] | > 38.3 µg/mL
12 | Cc1ccsc1CNC1C2CC3CC(C2)CC1C3.Cl (stereo unspecified) | 39.9 µg/mL
13 | Cc1nc([N+](=O)[O-])cn1CC(O)c1ccc(-c2ccccc2)cc1 (stereo unspecified) | 17.1 µg/mL (≈ 52.9 µM)
14 | S=C(NCc1ccc(Cl)cc1)NCc1ccccn1 | 35.1 µg/mL (≈ 120 µM)
15 | Cc1ccc(CSCC(=O)Nc2ccccc2C(=O)O)cc1 | > 47.3 µg/mL
16 | CCC1CCCCN1CC(=O)c1c(C)[nH]c2cc(C)ccc12 (stereo unspecified) | 33 µg/mL (≈ 111 µM)
17 | O=C(CCc1ccccc1F)N1CCN(c2ccccc2)CC1 | 41.6 µg/mL (≈ 133 µM)
18 | COC(=O)c1cc(OC)c(OC)cc1N1C(=O)CCCC1=O | > 46.1 µg/mL
19 | CCOC(=O)N1CCN(Cc2ccc3ccccc3c2)CC1 | 26.9 µg/mL (≈ 90.2 µM)
20 | Cc1ccccc1SCC(=O)OCC(=O)N1CC(=O)Nc2ccccc21 | 11.6 µg/mL (≈ 31.3 µM)
21 | CN(c1ccc(O)cc1)c1nc(-c2cccnc2)cs1 | 3.2 µg/mL (≈ 11.3 µM)
22 | CCOc1ccccc1NC(=O)c1ccc(OCC(=O)N2CCOCC2)c(OC)c1 | > 62.2 µg/mL
23 | Cc1ccc2oc(=O)cc(CN3CCN(Cc4ccccc4)CC3)c2c1 | 19.5 µg/mL (≈ 56 µM)
24 | O=C(O)c1ccccc1/C=N/NC(=S)NCc1ccccc1 | > 47 µg/mL
25 | CC(=O)Nc1sc(C)c(C)c1C(=O)OCC(=O)Nc1cccc(C)c1 | 1.1 µg/mL (≈ 3.05 µM)

Row | Structure (SMILES) | solubility kinetic
26 | CC(C)NC(=O)c1ccc(S(=O)(=O)N(C)C)cc1 | > 40.6 µg/mL
27 | Cc1ccc(OCC(=O)OCC(=O)NC2CCCC2)cc1C | 20 µg/mL (≈ 65.5 µM)
28 | Cc1ccc(CSCC(=O)Nc2ccccc2F)cc1 | 27.6 µg/mL (≈ 95.4 µM)
29 | CC(C)(C)c1nc2ccc([N+](=O)[O-])cc2[nH]1 | > 32.9 µg/mL
30 | O=C(C#Cc1ccccc1)Nc1ccccc1F | 25.4 µg/mL (≈ 106 µM)
31 | CCC(=O)Nc1ccc(CCC(=O)N2CCCC2)cc1 | 40 µg/mL (≈ 146 µM)
32 | CC(C)(C)N1C(=O)c2ccc(C(=O)Nc3ccc(O)cc3)cc2C1=O | 17.4 µg/mL (≈ 51.4 µM)
33 | CSc1ccc(CNC(C)C(O)c2ccccc2)cc1.Cl (stereo unspecified) | > 48.6 µg/mL
34 | Clc1nc(CN2CCCCC2)nc2sc3c(c12)CCC3 | > 46.2 µg/mL
35 | CS(=O)(=O)N1CCN(Cc2cc(=O)n3ccsc3n2)CC1 | > 49.3 µg/mL
36 | O=C(NC1CCSc2ccccc21)c1cccc(Cl)c1 (stereo unspecified) | 2.1 µg/mL (≈ 6.91 µM)
37 | COC(=O)Cc1c(O)ccn(Cc2ccc3c(c2)OCO3)c1=O | > 47.6 µg/mL
38 | C1CN(CCN2CCOCC2)CCN1 | 22.7 µg/mL (≈ 114 µM)
39 | CCOC(=O)NC(=O)c1cn(-c2ccc(OC)cc2)c(=O)[nH]c1=O | 9.1 µg/mL (≈ 27.3 µM)
40 | O=C(Cc1ccc(Cl)cc1Cl)OCC(=O)N1CCCCC1 | > 49.5 µg/mL
41 | O=C(Cc1ccc(Cl)cc1)Nc1ccc(Cl)cn1 | 3.1 µg/mL (≈ 11 µM)
42 | COc1cc(OC)c(OC)cc1CNCc1ccc2c(c1)OCO2 | > 49.7 µg/mL
43 | Cc1cccc(NC(=O)NC(=O)c2ccccc2)n1 | 0.8 µg/mL (≈ 3.13 µM)
44 | CC(=O)c1ccc(N2CCN(CC3CCCCC3)CC2)cc1 | 22 µg/mL (≈ 73.2 µM)
45 | CS(=O)(=O)Nc1ccccc1C(=O)NCCSc1ccccc1 | 51 µg/mL (≈ 146 µM)
46 | NC(=O)CN1C(=O)C(=O)N(Cc2ccc(Cl)cc2)C1=O | > 44.4 µg/mL
47 | N#Cc1cc2cc3ccccc3nc2n2c(=O)c3ccccc3nc12 | < 0.2 µg/mL
48 | N#Cc1cccc(NC(=O)CN2CCCCCC2)c1 | > 38.6 µg/mL
49 | CCOc1ccc(N2CC(C(=O)N3CC(C)OC(C)C3)CC2=O)cc1 (stereo unspecified) | > 52 µg/mL
50 | COc1cccc(NC2=NCCCS2)c1 | > 33.3 µg/mL

Row | Structure (SMILES) | solubility kinetic
51 | COc1ccc(S(=O)(=O)NCCCn2ccnc2)cc1Cl | > 49.5 µg/mL
52 | O=[N+]([O-])c1c(NCCCO)cc(N2CCCCCC2)c2nonc12 | 28.6 µg/mL (≈ 85.3 µM)
53 | COc1cccc(C(=O)NCC(=O)OC(C)C(=O)NC23CC4CC(CC(C4)C2)C3)c1 (stereo unspecified) | > 62.2 µg/mL
54 | CCCC(C)NC(=O)c1ccccc1SC (stereo unspecified) | 34.1 µg/mL (≈ 144 µM)
55 | CC12CCC(=O)N1C(C(=O)Nc1ccccc1F)CS2 (stereo unspecified) | > 44.2 µg/mL
56 | CSc1ncc(C(=O)Nc2ccccc2C)c(C)n1 | > 41 µg/mL
57 | NC(=NC(=O)c1ccc(OCC(F)(F)F)nc1)c1ccc(Cl)cc1 | 2 µg/mL (≈ 5.59 µM)
58 | O=S(=O)(Nc1ccc(Br)cc1)N1CCOCC1 | > 48.2 µg/mL
59 | CCOC(=O)NC(=O)CSc1nc2ccc([N+](=O)[O-])cc2[nH]1 | 22 µg/mL (≈ 67.8 µM)
60 | Cc1cc(C)nc(Nc2ccc(Cl)cc2C)n1.Cl | 21.2 µg/mL
61 | CC1(C)CC(=O)N(c2ccc(Cl)cc2Cl)C(=O)C1 | > 42.9 µg/mL
62 | Cc1nc([N+](=O)[O-])cn1CC(=O)c1ccc(F)cc1 | > 39.5 µg/mL
63 | CCn1cc(CCC(=O)NCc2ccccc2OC)c2ccccc21 | 30.5 µg/mL (≈ 90.7 µM)
64 | C[C@H](NC(=O)c1ccccc1)C(=O)N1CCN(c2ccccc2)CC1 | > 50.6 µg/mL
65 | Cc1ccc(C)c(NC(=O)C2CCN(C(=O)c3cccs3)CC2)c1 | > 51.4 µg/mL
66 | Nc1ncc2[nH]cnc2n1 | > 20.3 µg/mL
67 | CC(C)N1CCN(Cc2nc3c(s2)CCCC3)CC1CCO (stereo unspecified) | 41.4 µg/mL (≈ 128 µM)
68 | CCCCCC(O)(CCN1CCCCC1)c1ccccc1.Cl (stereo unspecified) | > 48.9 µg/mL
69 | O=C(COC(=O)C1=COCCO1)Nc1ccc(F)c(F)c1 | 4.6 µg/mL (≈ 15.4 µM)
70 | CC1CC(C)CN(C(C)C(=O)Nc2cc(S(=O)(=O)N3CCCCC3)ccc2Cl)C1 (stereo unspecified) | < 0.3 µg/mL
71 | CCn1ncc(-c2ccnc3cc(C(=O)O)nn23)c1C | > 40.7 µg/mL
72 | CNC(=O)N1c2ccccc2CCc2ccccc21 | > 37.8 µg/mL
73 | COc1ccccc1CC(=O)O/N=C(\N)c1ccccn1 | > 42.8 µg/mL
74 | CC1CCCC(NC(=O)c2ccc3c(c2)OCCO3)C1C (stereo unspecified) | > 43.4 µg/mL
75 | CN1CCN(S(=O)(=O)c2cccc3nsnc23)CC1 | > 44.8 µg/mL

Row | Structure (SMILES) | solubility kinetic
76 | COC(=O)c1cc(C(=O)c2cc(Cl)ccc2O)coc1=N | 41.9 µg/mL (≈ 136 µM)
77 | O=C(Nc1nc(-c2ccc(F)c(F)c2)cs1)c1cnccn1 | 0.8 µg/mL (≈ 2.51 µM)
78 | COc1ccccc1Nc1nc(Cl)nc(Nc2ccccc2OC)n1 | < 0.2 µg/mL
79 | O=C(Cn1cnc2ccccc2c1=O)N1CCc2ccccc2C1 | > 47.9 µg/mL
80 | Cc1ccc(-c2cc(C(=O)NCC(c3ccccc3)N(C)C)c3ccccc3n2)o1 (stereo unspecified) | 31.1 µg/mL (≈ 77.8 µM)
81 | COc1ccc(CN2CCN(C3CCC3)CC2CCO)c(F)c1 (stereo unspecified) | 42.2 µg/mL (≈ 131 µM)
82 | COc1ccc2c(c1)C(=O)N(Cc1ccccc1)C(=O)C2(C)C | 10.5 µg/mL (≈ 33.9 µM)
83 | Cc1cc(C)n2nc(C(=O)N/N=C/c3cn(C)nc3C)nc2n1 | > 46.8 µg/mL
84 | O=C(Nc1ccccc1)Oc1cccc(Br)c1 | 35.9 µg/mL (≈ 123 µM)
85 | CC(=O)OCC(=O)Nc1ccc(SC(F)F)cc1 | > 41.3 µg/mL
86 | O=C(c1ccccc1)N1CCN(S(=O)(=O)N2CCOCC2)CC1 | 46 µg/mL (≈ 136 µM)
87 | Cc1cccc(N2C(=O)c3ccccc3C2=O)n1 | > 35.7 µg/mL
88 | O=C(c1ccccc1)c1nc2c(n1O)CCCCC2 | > 38.4 µg/mL
89 | COc1ccc(CCCc2nc3ccccc3[nH]2)cc1 | 37.4 µg/mL (≈ 140 µM)
90 | Clc1cccc(Cl)c1-c1noc(-c2ccno2)n1 | 28.6 µg/mL (≈ 101 µM)
91 | Cc1cc(O)c(NC(=O)c2cccc([N+](=O)[O-])c2)cc1C | < 0.3 µg/mL
92 | CCOc1ccc(Cl)cc1/C=C1/C(=O)ON=C1C | 29.3 µg/mL (≈ 110 µM)
93 | CC(=O)c1c(C)[nH]c(C(=O)OCC(=O)Nc2ccc3c(c2)OCCO3)c1C | 3.8 µg/mL (≈ 10.2 µM)
94 | Cc1cc(C(=O)OCC(=O)NC2CC2)c2ccccc2n1 | > 42.6 µg/mL
95 | CCCCCCc1c(C)[nH]c2nc3ccccc3n2c1=O | < 0.2 µg/mL
96 | S=C(Nc1ccccc1)Nc1ccc(Cl)cn1 | 2.1 µg/mL (≈ 7.96 µM)
97 | COc1ccc(CNC(=O)c2ccc(Br)cc2)cc1 | 4.1 µg/mL (≈ 12.8 µM)
98 | O=C1CSC(c2ccc(F)cc2)N1c1c(F)cccc1F (stereo unspecified) | 31.2 µg/mL (≈ 101 µM)
99 | O=C(COC(=O)c1ccc([N+](=O)[O-])o1)NC1CCCCC1 | > 44.4 µg/mL
100 | COc1ccc(NC(=O)C2CCC2)cc1S(=O)(=O)Nc1cc(C)ccc1Br | 1.1 µg/mL (≈ 2.43 µM)

Row | Structure (SMILES) | solubility kinetic
101 | O=C1N=c2ccccc2=C1c1c(O)[nH]c2c(C(F)(F)F)cccc12 | < 0.4 µg/mL
102 | NS(=O)(=O)c1cccc(NC(=O)c2ccno2)c1 | > 40.1 µg/mL
103 | O=C(NCCc1ccc(Cl)cc1)c1ccc2c(c1)OCCO2 | 0.8 µg/mL (≈ 2.52 µM)
104 | CSc1cccc(N2C(=O)C3CCCN3C2=S)c1 (stereo unspecified) | 36.2 µg/mL (≈ 130 µM)
105 | Cc1ccc(SCC(=O)N2CCN(c3ccccn3)CC2)cc1 | 43.8 µg/mL (≈ 134 µM)
106 | COc1ccc(C(=O)NCC(=O)N2CCN(C(=O)c3ccco3)CC2)cc1[N+](=O)[O-] | > 62.5 µg/mL
107 | CCOc1ccccc1N=Cc1c(O)n(C)c(=O)n(C)c1=O | 1.1 µg/mL (≈ 3.63 µM)
108 | Cn1cnc([N+](=O)[O-])c1Sc1ccc(C(C)(C)C)cc1 | 6.1 µg/mL (≈ 20.9 µM)
109 | O=S(=O)(c1ccc(Cl)cc1)N1CCN(c2ncccn2)CC1 | 0.9 µg/mL (≈ 2.66 µM)
110 | CC1Oc2ccccc2N(Cc2ccc(F)cc2)C1=O (stereo unspecified) | 23.4 µg/mL (≈ 86.3 µM)
111 | COc1ccc(C(=O)Nc2cc(C)on2)cc1OC | 26.9 µg/mL (≈ 103 µM)
112 | Cc1ccccc1OC(=O)c1cccnc1 | 28.4 µg/mL (≈ 133 µM)
113 | CN(C)C(Cc1ccccc1)C(=O)c1c[nH]c2ccccc12.Cl (stereo unspecified) | > 49.3 µg/mL
114 | COc1cc(NC(=O)C2CCN(c3cnccn3)CC2)cc(OC)c1 | 47.1 µg/mL (≈ 138 µM)
115 | CC(C)(C)C(=O)Nc1ccc(NC(=O)c2ccco2)nc1 | > 43.1 µg/mL
116 | COCCCNC(=O)c1ccc(CN2CCc3ccccc3C2)cc1 | > 50.8 µg/mL
117 | COc1ccc(NS(=O)(=O)c2cc(NC(=O)c3ccc(Cl)cc3)ccc2N2CCOCC2)cc1 | 1.5 µg/mL (≈ 2.99 µM)
118 | Cc1ccc(OCCn2cc(C(=O)O)c3ccccc32)cc1 | 44.3 µg/mL (≈ 150 µM)
119 | COC(=O)Cc1nc(Nc2ccccc2)sc1C | 34.3 µg/mL (≈ 131 µM)
120 | CC(=O)Nc1cccc(NC(=S)Nc2cccc3ccccc23)c1 | > 50.3 µg/mL
121 | N#Cc1ccc(NC(=O)CN2C(=O)NC3(CCCC3)C2=O)cc1 | > 46.8 µg/mL
